In ChEMBL document CHEMBL1212843, “Dual-target-directed 1,3-diphenylurea derivatives: BACE 1 inhibitor and metal chelator against Alzheimer's disease” (Bioorg Med Chem, 2010) one finds inhibition and IC50 data, which are given here for 11 molecules.

In general, inhibition refers to the relative decrease from the control value, in per cent. The term IC50 denotes the concentration at which inhibition is half-maximal.

The target in experiment [1] is T1, Beta-secretase 1 (Homo sapiens, UniProt P56817). The experiment can be described thus: Inhibition of BACE1 by FRET assay. The arrangement: concentration or dose not given beside the values. Conditions: concentration not given here.
The target in experiment [2] is T1, Beta-secretase 1. As to the kind of experiment: Inhibition of BACE1 at 20 ug/ml by FRET assay.

T1 sequence (P56817 whole entry): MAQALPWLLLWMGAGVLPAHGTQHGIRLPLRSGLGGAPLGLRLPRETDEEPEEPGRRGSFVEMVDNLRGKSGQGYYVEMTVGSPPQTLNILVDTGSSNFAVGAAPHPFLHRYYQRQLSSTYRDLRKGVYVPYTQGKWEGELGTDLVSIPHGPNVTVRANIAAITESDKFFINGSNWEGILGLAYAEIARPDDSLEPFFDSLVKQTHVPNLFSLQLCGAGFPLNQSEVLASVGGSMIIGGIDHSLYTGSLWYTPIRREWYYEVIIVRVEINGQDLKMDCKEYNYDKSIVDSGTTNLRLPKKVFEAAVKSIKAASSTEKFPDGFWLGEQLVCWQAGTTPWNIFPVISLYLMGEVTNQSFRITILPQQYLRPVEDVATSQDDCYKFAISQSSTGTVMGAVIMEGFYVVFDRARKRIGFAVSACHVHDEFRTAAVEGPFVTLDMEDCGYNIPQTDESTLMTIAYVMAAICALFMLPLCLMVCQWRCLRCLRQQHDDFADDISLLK

At Beta-secretase 1 [1], `COc1cccc(CC(=O)Nc2cc(Br)ccc2OCCN2CCOCC2)c1` yielded an inhibition of 20.9%. In turn, `O=C(Cc1ccccc1Cl)Nc1cc(Br)ccc1OCCNC1CC1` had an inhibition on Beta-secretase 1 [1] of 77.1%. Besides, 37.6 µM corresponded to half-maximal inhibition against Beta-secretase 1 [2] (IC50). Consider `CCCCCCNCCOc1ccc(Br)cc1NC(=O)Cc1ccccc1Cl`, for which the inhibition against Beta-secretase 1 [1] amounted to 79.4%. The IC50 on Beta-secretase 1 [2] stood at 29.4 µM. On to `O=C(Cc1ccccc1)Nc1cc(Br)ccc1OCCN1CCOCC1`, for which, at Beta-secretase 1 [1], the inhibition amounted to 24.5%. Molecule `NCCCCCCNCCOc1ccc(Br)cc1NC(=O)Cc1ccccc1Cl` showed an IC50 against Beta-secretase 1 [2] of 27.9 µM. In turn, `O=C(Cc1ccccc1Cl)Nc1cc(Br)ccc1OCCNC1CCCCC1` registered an inhibition against Beta-secretase 1 [1] of 87.7%. On Beta-secretase 1 [2], this molecule showed an IC50 of over 42.8 µM.

In turn, `NCCCNCCOc1ccc(Br)cc1NC(=O)Cc1ccccc1Cl` yielded an inhibition on Beta-secretase 1 [1] of 77.9%. In addition, the IC50 on Beta-secretase 1 [2] is over 45.2 µM. Consider `O=C(Cc1ccccc1Cl)Nc1cc(Br)ccc1OCCN1CCOCC1`, for which, on Beta-secretase 1 [1], the inhibition stood at 36.8%. The same measure, in the same setting: with `O=C(Cc1cccc([N+](=O)[O-])c1)Nc1cc(Br)ccc1OCCN1CCOCC1` the figure was 20.3%. Turning to `O=C(Cc1ccccc1Cl)Nc1cc(Br)ccc1OCCNCCCCCO`, the inhibition at Beta-secretase 1 [1] was found to be 67.5%. In addition, the IC50 against Beta-secretase 1 [2] is over 42.5 µM.

With `O=C(Cc1ccccc1Cl)Nc1cc(Br)ccc1OCCN1CCCCC1`, the inhibition against Beta-secretase 1 [1] was determined as 61.9%. The IC50 against Beta-secretase 1 [2] was over 44.2 µM.
